From US6497899B2, “Rapidly disintegrating and fast-dissolving solid dosage form” (Pfizer, Inc., priority 2000, dated 2002)

Experiment: Dissolution testing of medicated tablets, USP/NF method 711, apparatus 2 at 50 RPM, UV absorption
Assay type: physicochemical
Conditions: medicated steam extruded starch solid dosage form, apparatus 2, 50 RPM
Protocol: Dosage form dissolution is measured by the United States Pharmacopeia/National Formulary (USP/NF) method 711 (United States Pharmacopeia, Rockville, Md., USA) and is summarized below:
The assembly from Apparatus 1 is used except that a paddle formed from a blade and a shaft is used as the stirring element. The shaft is positioned so that its axis is not more than 2 mm at any point from the vertical axis of the vessel and rotates smoothly without significant wobble. The vertical center line of the blade passes through the axis of the shaft so that the bottom of the blade is flush with the bottom of the shaft. The distance of 25±2 mm between the blade and the inside bottom of the vessel is maintained during the test. The metallic or suitably inert, rigid blade and shaft comprise a single entity that may be coated with a suitable inert coating. The dosage unit is allowed to sink to the bottom of the vessel before rotation of the blade is started. A small, loose piece of nonreactive material such as not more than a few turns of wire helix may be attached to dosage units that would otherwise float. Other validated sinker devices may be used. […]
The stated volume of the dissolution medium (±1%) is placed in the vessel of the apparatus. The dissolution medium is equilibrated to 37±0.5°C., and the thermometer removed. One solid dosage form is placed in the apparatus, taking care to exclude air bubbles from the surface of the dosage-form unit and either apparatus is immediately operated at a rate of 50 rpm. The concentration of dissolved drug in dissolution medium is measured over time by ultraviolet spectrophotometer to calculate the dissolution rate.
The medicated tablets were dissolved according to USP/NF method 711 using apparatus 2 at 50 RPM. Levels of medicament released were determined by UV absorption.

[1] = dissolution media Simulated Intestinal Fluid without enzyme
[2] = dissolution media deionized H2O, 37 C

Row | 1 minute release [1] [%] | 5 minute release [1] [%] | 10 minute release [1] [%] | 60 minute release [1] [%] | 1 minute release [2] [%] | 5 minute release [2] [%] | 60 minute release [2] [%] | SMILES
1 | 33.4 | 69.6 | 82.8 | 101.4 | – | – | – | CC(C(=O)O)c1ccc2c(c1)[nH]c1ccc(Cl)cc12 (stereo not shown) [Carprofen]
2 | – | – | – | – | 65.5 | 82.7 | 100.1 | Cl.Cl.O=C(O)COCCN1CCN(C(c2ccccc2)c2ccc(Cl)cc2)CC1 (stereo not shown) [Cetirizine.HCl]
3 | – | – | – | – | 60.3 | 76.7 | 97.6 | OC(Cn1cncn1)(Cn1cncn1)c1ccc(F)cc1F [Diflucan, Fluconazole]
